Experimental findings from patent US10717799B2, “Copolymers as excipients for effective solubilization of poorly water-soluble substances from solid mixtures” (Dow Global Technologies LLC, priority 2015, dated 2020) are described below.

Values after ≈ are worked out from the molar mass of the structure shown.

By solubility is commonly meant the concentration that dissolves in the medium under given conditions. Read a high solubility as much dissolved substance.

Assay in the first data set: not given
Conditions: pH 6.5.
“poly-[(N-isopropylacrylamide)-co-(N,N-dimethylacrylamide)] [Example 1-15]”: the “c(30 min) concentration of solubilized Nilutamide” value is listed as 828 mg/L, the “c(90 min) concentration of solubilized Nilutamide” value is recorded as 833 mg/L and the “c(180 min) concentration of solubilized Nilutamide” value was 848 mg/L.

Assay in a further data set: not given
As to conditions: pH 6.5. The source holds these as a separate data set.
As for “poly-[(N,N-diethylacrylamide)-co-(N,N-dimethylacrylamide)] [Example 5-1]”, the “c(30 min) concentration of solubilized Phenytoin” value is listed as 172 mg/L, the “c(90 min) concentration of solubilized Phenytoin” value was 197 mg/L and the “c(180 min) concentration of solubilized Phenytoin” value came to 137 mg/L.

As for “poly-[(N,N-diethylacrylamide)-co-(N,N-dimethylacrylamide)] [Example 5-2]”, the “c(30 min) concentration of solubilized Phenytoin” value stood at 319 mg/L, the “c(90 min) concentration of solubilized Phenytoin” value was 322 mg/L and the “c(180 min) concentration of solubilized Phenytoin” value is recorded as 223 mg/L.

With “poly-[(N,N-diethylacrylamide)-co-(N,N-dimethylacrylamide)] [Example 5-3]”, the “c(30 min) concentration of solubilized Phenytoin” value is given as 595 mg/L, the “c(90 min) concentration of solubilized Phenytoin” value turned out to be 413 mg/L and the “c(180 min) concentration of solubilized Phenytoin” value came out at 257 mg/L.

Take “poly-[(N,N-diethylacrylamide)-co-(N,N-dimethylacrylamide)] [Example 5-4]”: the “c(30 min) concentration of solubilized Phenytoin” value stood at 646 mg/L, the “c(90 min) concentration of solubilized Phenytoin” value is reported as 667 mg/L and the “c(180 min) concentration of solubilized Phenytoin” value is 591 mg/L.

“poly-[(N,N-diethylacrylamide)-co-(N,N-dimethylacrylamide)] [Example 5-5]”: the “c(30 min) concentration of solubilized Phenytoin” value is recorded as 348 mg/L, the “c(90 min) concentration of solubilized Phenytoin” value is recorded as 359 mg/L and the “c(180 min) concentration of solubilized Phenytoin” value worked out at 295 mg/L.

As for “poly-[(N-isopropylacrylamide)-co-(N,N-dimethylacrylamide)] [Example 1-1]”, the “c(30 min) concentration of solubilized Phenytoin” value is listed as 1,208 mg/L, the “c(90 min) concentration of solubilized Phenytoin” value is on record as 1,024 mg/L and the “c(180 min) concentration of solubilized Phenytoin” value was 1,104 mg/L.

For the compound “poly-[(N-isopropylacrylamide)-co-(N,N-dimethylacrylamide)] [Example 1-3]”, the “c(30 min) concentration of solubilized Phenytoin” value was determined as 992 mg/L, the “c(90 min) concentration of solubilized Phenytoin” value is given as 794 mg/L and the “c(180 min) concentration of solubilized Phenytoin” value came out at 876 mg/L.

With “poly-[(N-isopropylacrylamide)-co-(N,N-dimethylacrylamide)] [Example 1-4]”, the “c(30 min) concentration of solubilized Phenytoin” value is reported as 1,066 mg/L, the “c(90 min) concentration of solubilized Phenytoin” value is listed as 758 mg/L and the “c(180 min) concentration of solubilized Phenytoin” value is 936 mg/L.

For the compound “poly-[(N-isopropylacrylamide)-co-(N,N-dimethylacrylamide)] [Example 1-5]”, the “c(30 min) concentration of solubilized Phenytoin” value stood at 942 mg/L, the “c(90 min) concentration of solubilized Phenytoin” value is given as 759 mg/L and the “c(180 min) concentration of solubilized Phenytoin” value was determined as 823 mg/L.

As for “poly-[(N-isopropylacrylamide)-co-(N,N-dimethylacrylamide)] [Example 1-6]”, the “c(30 min) concentration of solubilized Phenytoin” value is 962 mg/L, the “c(90 min) concentration of solubilized Phenytoin” value was determined as 649 mg/L and the “c(180 min) concentration of solubilized Phenytoin” value was 875 mg/L.

In the case of “poly-[(N-isopropylacrylamide)-co-(N,N-dimethylacrylamide)] [Example 1-7]”, the “c(30 min) concentration of solubilized Phenytoin” value is given as 156 mg/L, the “c(90 min) concentration of solubilized Phenytoin” value worked out at 137 mg/L and the “c(180 min) concentration of solubilized Phenytoin” value is 145 mg/L.

For “poly-[(N-isopropylacrylamide)-co-(N,N-dimethylacrylamide)] [Example 1-8]”, the “c(30 min) concentration of solubilized Phenytoin” value was 183 mg/L, the “c(90 min) concentration of solubilized Phenytoin” value came to 173 mg/L and the “c(180 min) concentration of solubilized Phenytoin” value is recorded as 184 mg/L.

On to “poly-[(N-isopropylacrylamide)-co-(N,N-dimethylacrylamide)] [Example 1-9]”, for which the “c(30 min) concentration of solubilized Phenytoin” value was determined as 301 mg/L, the “c(90 min) concentration of solubilized Phenytoin” value was 266 mg/L and the “c(180 min) concentration of solubilized Phenytoin” value worked out at 265 mg/L.

As for “poly-[(N-isopropylacrylamide)-co-(N,N-dimethylacrylamide)] [Example 1-10]”, the “c(30 min) concentration of solubilized Phenytoin” value amounted to 392 mg/L, the “c(90 min) concentration of solubilized Phenytoin” value is on record as 281 mg/L and the “c(180 min) concentration of solubilized Phenytoin” value is recorded as 255 mg/L.

For “poly-[(N-isopropylacrylamide)-co-(N,N-dimethylacrylamide)] [Example 1-11]”, the “c(30 min) concentration of solubilized Phenytoin” value came to 895 mg/L, the “c(90 min) concentration of solubilized Phenytoin” value is recorded as 343 mg/L and the “c(180 min) concentration of solubilized Phenytoin” value is 300 mg/L.

Consider “poly-[(N-isopropylacrylamide)-co-(N,N-dimethylacrylamide)] [Example 1-15]”, for which the “c(30 min) concentration of solubilized Phenytoin” value is reported as 479 mg/L, the “c(90 min) concentration of solubilized Phenytoin” value turned out to be 455 mg/L and the “c(180 min) concentration of solubilized Phenytoin” value is 409 mg/L.

For “poly-[(N-isopropylacrylamide)-co-(N,N-dimethylacrylamide)] [Example 1-16]”, the “c(30 min) concentration of solubilized Phenytoin” value amounted to 413 mg/L, the “c(90 min) concentration of solubilized Phenytoin” value was determined as 379 mg/L and the “c(180 min) concentration of solubilized Phenytoin” value turned out to be 407 mg/L.

Another data set is described as follows: physchem. Conditions: 37 °C, pH 6.5, aqueous with cosolvent or surfactant or cyclodextrin, kinetic from dmso stock.
Consider `O=C1NC(=O)C(c2ccccc2)(c2ccccc2)N1` [Phenytoin], for which the solubility at 30 min turned out to be 75 µg/mL (≈ 297 µM), the concentration in solution (solubility at 90 min) was 70 µg/mL (≈ 277 µM) and the solubility at 180 min was found to be 73 µg/mL (≈ 289 µM).

The next data set in a line: physchem. Conditions: 37 °C, pH 6.5, fassif, thermodynamic from solid.
Compound `O=C1NC(=O)C(c2ccccc2)(c2ccccc2)N1` [Phenytoin] yielded a solubility at 4 min of about 50 µg/mL (≈ 198 µM).

Another data set is described as follows: Supersaturation (maintenance) test with Nilutamide. As to conditions: phosphate buffer saline with 0.5 wt. % FaSSIF, 37 °C, pH 6.5, aqueous with cosolvent or surfactant or cyclodextrin, kinetic from dmso stock.
In turn, `CC1(C)NC(=O)N(c2ccc([N+](=O)[O-])c(C(F)(F)F)c2)C1=O` [Nilutamide] came in with a solubility at 30 min of 473 µg/mL (≈ 1490 µM), a solubility at 90 min of 364 µg/mL (≈ 1150 µM) and a solubility at 180 min of 308 µg/mL (≈ 971 µM).

Assay in another data set: not given
As to conditions: pH 6.5. The source holds these as a separate data set.
For “poly-[(N-isopropylacrylamide)-co-(N,N-dimethylacrylamide)] [Example 1-17]”, the “solubilized drug concentration after continuous decrease” value is listed as “below 200 mg/L”.
